From patent EP0241395A2, “Sweeteners derived from n-phenylguanidinoacetic and n-phenylethananamidinacetic acids, and compositions containing such sweeteners” (UNIVERSITE CLAUDE BERNARD - LYON 1, priority 1986, dated 1987)
Peptide text beside a SMILES is read from it.

Experiments:
[1] = cited from earlier work
[2] = tested on: groupe de huit goûteurs expérimentés; experiment: Sweetening power judged by a panel of eight experienced tasters against a sucrose reference solution; format: in vivo; details: weight basis; for Pouvoir édulcorant: Table II, relative to a 2 % sucrose solution; for pouvoir édulcorant, sur une base pondérale: approximate
Summary of the method: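 Panel of eight experienced tasters compared aqueous solutions of compound at varying concentrations with a sucrose reference at 2 %, sometimes 5 % and 10 %. Sweetening power is the weight ratio of sucrose to compound at equal sweetness intensity, as judged by a majority of tasters, and depends on the reference concentration.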

[3] = Stability in solution at pH 3 and 70 °C, remaining compound determined by HPLC; format: physicochemical; details: pH 3, phosphate buffer 1mM; for remaining at 168 h: 1 mm phosphate buffer, after seven days, read-out: composé restant
Protocol: Les agents édulcorants de la présente invention sont généralement stables. La stabilité est déterminée à pH 3 en solution dans un tampon phosphate 1mM à 70 °C. La concentration du composé restant est déterminée par chromatographie liquide haute pression (HPLC). Par exemple, après six jours dans de telles conditions, on retrouve encore la moitié du composé de l'exemple 14 dans lequel X4 est CN, X3, X5, R1, R3 et R4 sont H, A est N, et R2 est (S) CH (CH3) C6H5. On améliore la stabilité lorsque l'on remplace l'atome d'hydrogène de R1 par CH3. Ainsi, après sept jours dans les mêmes conditions , on retrouve encore 88 % du composé de l'exemple 31 dans lequel X3 et X5 sont Cl, X4, R3 et R4 sont H, A est N, R1 est CH3, et R2 est CH2C6H5. De la même manière, toujours après sept jours et dans les mêmes conditions, on retrouve 86 % du composé de l'exemple 33 dans lequel X4 est CN, X3, X5, R3 et R4 sont H, A est N, R1 est CH3, et R2 est CH2C6H5.

[4] = by comparison with a 2 % sucrose solution
[5] = by comparison with a 5 % sucrose solution
[6] = by comparison with a 10 % sucrose solution

Compound | Pouvoir sucrant (saccharose = 1) [1] | Pouvoir édulcorant [2] | pouvoir édulcorant, sur une base pondérale [2, 4] | also measured
CC1=CC(=O)NS(=O)(=O)O1 [Acésulfame-K] | 200 | – | – | –
C[C@@H](NC(=O)[C@@H](N)CC(=O)O)C(=O)NC1C(C)(C)SC1(C)C [Alitame] | 2000 | – | – | –
COC(=O)[C@H](Cc1ccccc1)NC(=O)[C@@H](N)CC(=O)O [Aspartame] (H-Asp-Phe-OMe) | 200 | – | – | –
C[C@H](NC(=Nc1ccc(C#N)cc1)NCC(=O)O)c1ccccc1 [Exemple 14, acide N-[N-(S)-α-méthylbenzylamino (4-cyanophénylimino)méthyl]-2-aminoéthanoïque] | – | 28000 | ~28 000 fois celui du saccharose | pouvoir édulcorant, sur une base pondérale [2, 5]: ~20 000 fois celui du saccharose; pouvoir édulcorant, sur une base pondérale [2, 6]: ~10 000 fois celui du saccharose; composé restant ([3]; after six days): la moitié
CN(Cc1ccccc1)C(=Nc1cc(Cl)cc(Cl)c1)NCC(=O)O [Exemple 31, acide N-[N-méthyl-N-benzylamino (3,5-dichlorophénylimino)méthyl]-2-aminoéthanoïque] | – | 20000 | ~20 000 fois celui du saccharose | remaining at 168 h [3]: 88%
CN(Cc1ccccc1)C(=Nc1ccc(C#N)cc1)NCC(=O)O [Exemple 33, acide N-[N-méthyl-N-benzylamino(4-cyanophénylimino)méthyl]-2-aminoéthanoique] | – | 3000 | ~3 000 fois celui du saccharose | pouvoir édulcorant, sur une base pondérale [2, 5]: ~1800 times sucrose; pouvoir édulcorant, sur une base pondérale [2, 6]: ~1 200 fois celui du saccharose; remaining at 168 h [3]: 86%
C[C@@H](NC(=Nc1ccc(C#N)cc1)NC1CCCCCCC1)C(=O)O [Exemple 87, acide (R)-N-[N-cyclooctylamino(4-cyanophénylimino)méthyl]-2-aminopropanoïque] | – | 900 | ~900 fois celui du saccharose | –
Cc1cc(C)cc(N=C(NCC(=O)O)N(C)Cc2ccccc2)c1 [Exemple 88, acide N-[N-méthyl-N-benzylamino (3,5-diméthylphénylimino)méthyl]-2-aminoéthanoïque] | – | 5000 | ~5 000 fois celui du saccharose | –
COc1ccc(CCC(=O)c2c(O)cc(O[C@@H]3O[C@H](CO)[C@@H](O)[C@H](O)[C@H]3O[C@@H]3O[C@@H](C)[C@H](O)[C@@H](O)[C@H]3O)cc2O)cc1O [Néohespéridine dihydrochalcone] | 1000 | – | – | –
O=C1NS(=O)(=O)c2ccccc21 [Saccharine] | 400 | – | – | –
C=C1C[C@@]23CC[C@H]4[C@@](C)(CCC[C@@]4(C)C(=O)O[C@@H]4O[C@H](CO)[C@@H](O)[C@H](O)[C@H]4O)[C@@H]2CC[C@]1(O[C@@H]1O[C@H](CO)[C@@H](O)[C@H](O)[C@H]1O[C@@H]1O[C@H](CO)[C@@H](O)[C@H](O)[C@H]1O)C3 [Stévioside] | 300 | – | – | –
OC[C@H]1O[C@H](O[C@]2(CCl)O[C@H](CCl)[C@@H](O)[C@@H]2O)[C@H](O)[C@@H](O)[C@H]1Cl [Trichlorogalactosucrose] | 2000 | – | – | –
OC[C@@H](O)[C@H](O)[C@@H](O)CO [Xylitol] | 1 | – | – | –
Cyclamate de sodium | 30 | – | – | –
Glycyrrhizine | 50 | – | – | –
